Results on 21 compounds are retold here after patent US20120225909A1, “INDAZOLE ANALOG” (priority 2009, published 2012).

Experiment [1] concerns the target T1, human α1A-adrenergic receptor (Homo sapiens, UniProt P35348).
T1 sequence (P35348 1-466): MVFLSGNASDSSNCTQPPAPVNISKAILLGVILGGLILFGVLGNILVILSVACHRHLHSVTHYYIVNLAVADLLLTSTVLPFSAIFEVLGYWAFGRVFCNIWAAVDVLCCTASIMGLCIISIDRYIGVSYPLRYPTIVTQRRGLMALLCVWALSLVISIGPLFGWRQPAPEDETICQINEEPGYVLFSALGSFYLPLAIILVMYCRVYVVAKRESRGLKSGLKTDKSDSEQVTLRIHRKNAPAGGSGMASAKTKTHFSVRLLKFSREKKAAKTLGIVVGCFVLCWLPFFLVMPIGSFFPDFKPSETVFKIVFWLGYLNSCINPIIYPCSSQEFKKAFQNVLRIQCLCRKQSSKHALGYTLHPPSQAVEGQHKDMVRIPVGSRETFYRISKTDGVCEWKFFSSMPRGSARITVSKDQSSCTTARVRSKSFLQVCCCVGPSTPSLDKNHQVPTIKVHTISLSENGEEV
The experiment can be described thus: Test Case 4-A: human α1A-adrenergic receptor agonist activity (HEK293, Ca flux, Fura-2). It counts as cell-based. The conditions noted are these: for Emax: HEK293, read-out: α1A receptor I.A.; for α1A receptor I.A. / EC50: Test Case 4-A, Table 4; for α1A receptor I.A.: maximum response of norepinephrine = 100%; for EC50: HEK293 cells, Ca flux. More on the design: expressed in transfected cells; host or cells: HEK293 cells, pcDNA3.1. The method, then: Measurement of Human α1A-Adrenergic Receptor Agonist Activity
The human α1A-adrenergic receptor agonist activity is measured using HEK293 cells transfected by a human α1A gene inserted in pcDNA3.1 (Invitrogen). […] After loading for 30 minutes in a CO2 incubator, the excess Fura-2AM is removed by washing twice with assay buffer. After preparing the centrifuged cells to make 5×10^6 cells/mL by assay buffer, 80 μL/well is dispensed into 96-well UV plates (made by Corning) to make cell plates. Sample plates with the test compound diluted 10-fold by assay buffer from 10^−5 to 10^−12 M and cell plates are set in an FDSS4000 (made by Hamamatsu Photonics). After preincubating for 180 seconds, measurement of fluorescence intensity (excitation wavelength 340 nm, 380 nm, measurement wavelength 500 nm) is begun at 2-second intervals. After approximately 30 seconds of measurement, 20 μL of test sample from a sample plate is added to the cell plate, and measurement is continued for another 270 seconds. The Ca flux caused by the test compound is calculated taking the difference in the maximum value of the fluorescence intensity ratio at 340 nm and 380 nm after adding the test compound and the fluorescence intensity ratio before adding the test compound as the peak height.

The target in experiment [2] is T2, human β3-adrenergic receptor (Homo sapiens, UniProt P13945).
T2 construct: A full-length human β3 gene is obtained from a human genomic library (made by Clontech) using this as the probe; expressed in transfected cells; host or cells: CHO (Chinese hamster ovary) cells, pcDNA3
The experiment is described as follows: Test Case 1-B: human β3-adrenergic receptor agonist activity (cAMP-Screen, 96-well). It counts as cell-based. As to conditions: for Emax: 0.5 h, read-out: β3 receptor I.A.; for EC50 / β3 receptor I.A.: Test Case 1-B; for EC50: CHO cells, cAMP; for β3 receptor I.A.: maximum response of isoproterenol = 100%. As for the experimental part: Measurement of Human β3-Adrenergic Receptor Agonist Activity
The human β3-adrenergic receptor agonist activity is measured using CHO (Chinese hamster ovary) cells transfected by a human β3 gene inserted in pcDNA3 (Invitrogen). […] A full-length human β3 gene is obtained from a human genomic library (made by Clontech) using this as the probe. These cells are cultured in Ham's F-12 medium containing 10% fetal calf serum and 400 μg/mL genectin (Invitrogen). These cells are sown in 96-well plates to make 2×10^4 cells/well. After culturing for approximately 20 hours, they are allowed to stand for 15 minutes in 80 μL of serum-free Ham's F-12 medium. After first dissolving the test compound by DMSO, it is serially diluted by Ham's F-12 containing 100 mmol/L HEPES and 1 mmol/L isobutylmethylxanthine, and 20 μL is added to the cells. After culturing for 30 minutes, the medium is removed, and 0.1 mL of the assay/lysis buffer contained in the cAMP-Screen kit (made by Applied Bioscience) is added and incubated for 30 minutes at 37° C. The cAMP in this cell lysate is assayed by the above cAMP-Screen kit.

By EC50 is commonly meant the midpoint of the concentration-response curve.

T2 sequence (P13945 whole entry): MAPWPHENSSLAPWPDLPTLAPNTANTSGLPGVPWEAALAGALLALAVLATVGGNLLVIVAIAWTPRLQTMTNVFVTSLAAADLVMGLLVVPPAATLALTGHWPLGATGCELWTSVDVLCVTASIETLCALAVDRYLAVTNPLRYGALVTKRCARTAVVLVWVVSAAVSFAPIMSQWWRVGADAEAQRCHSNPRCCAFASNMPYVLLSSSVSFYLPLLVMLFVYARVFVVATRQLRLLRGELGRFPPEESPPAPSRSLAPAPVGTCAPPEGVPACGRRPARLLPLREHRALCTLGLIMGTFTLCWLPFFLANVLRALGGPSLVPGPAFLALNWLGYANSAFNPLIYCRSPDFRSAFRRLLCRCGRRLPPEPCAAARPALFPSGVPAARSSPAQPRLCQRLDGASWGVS

As for `COc1cccc(S(=O)(=O)Nc2cccc([C@@H](O)CNCCOc3ccc4c(OC)n[nH]c4c3)c2)c1` [ex14, (R)-N-(3-(1-hydroxy-2-(2-(3-methoxyindazol-6-yloxy)ethylamino)ethyl)phenyl)-3-methoxy-b ? sulfonamide], the Emax in experiment [1] worked out at 0%.
For `COc1cccc(S(=O)(=O)Nc2cccc([C@@H](O)CNCCOc3ccc4c(OC)n[nH]c4c3)c2)c1` [ex15, (R)-N-(3-(1-hydroxy-2-(2-(3-methoxyindazol-6-yloxy)ethylamino)ethyl)phenyl)-3-methoxy-b ? sulfonamide], the “α1A receptor I.A.” value in experiment [1] was found to be 0%.
Turning to `COc1n[nH]c2cc(OCCNC[C@H](O)c3cccc(NS(=O)(=O)C4CCC4)c3)ccc12` [ex38, (R)-N-(3-(1-hydroxy-2-(2-(3-methoxyindazol-6-yloxy)-ethylamino)ethyl)phenyl)cyclo-butanesulfonamide], the values for the Emax in experiment [2] and in experiment [1] were 89% and 75%, respectively. In addition, the EC50 in experiment [2] stood at 31 nM; in experiment [1], 378 nM.
As for `Cc1n[nH]c2cc(OCCNC[C@H](O)c3cccc(NS(=O)(=O)CC(F)(F)F)c3)ccc12` [ex48, (R)-2,2,2-trifluoro-N-(3-(1-hydroxy-2-(2-(3-methylindazol-6-yloxy)ethylamino)ethyl)phenyl) ? sulfonamide], in experiment [2], the Emax stood at 48% and the EC50 turned out to be 27 nM. Further, the Emax in experiment [1] amounted to 29%.
As for `Cc1n[nH]c2cc(OCCNC[C@H](O)c3cccc(NS(=O)(=O)c4cn(C)cn4)c3)ccc12` [ex50, (R)-N-(3-(1-hydroxy-2-(2-(3-methylindazol-6-yloxy)ethylamino)ethyl)phenyl)-1-methylimidazole-4-sulfonamide], the figures for the Emax in experiment [2] and in experiment [1] were 18% and 0%, respectively.
With `Cc1n[nH]c2cc(OCCNC[C@H](O)c3cccc(NS(=O)(=O)c4ccccc4Cl)c3)ccc12` [ex51, (R)-2-chloro-N-(3-(1-hydroxy-2-(2-(3-methylindazol-6-yloxy)ethylamino)ethyl)phenyl)ben-zenesulfonamide], in experiment [2], the Emax is 64% and the EC50 is 146 nM. Besides, in experiment [1], the Emax came out at 0%.
For `Cc1n[nH]c2cc(OCCNC[C@H](O)c3cccc(NS(=O)(=O)c4ccc(Cl)cc4)c3)ccc12` [ex52, (R)-4-chloro-N-(3-(1-hydroxy-2-(2-(3-methylindazol-6-yloxy)ethylamino)ethyl)phenyl) benzenesulfonamide] the same measures were 62%, 248 nM and 0%.
For `Cc1n[nH]c2cc(OCCNC[C@H](O)c3cccc(NS(=O)(=O)c4ccc(N)cc4)c3)ccc12` [ex54, (R)-4-amino-N-(3-(1-hydroxy-2-(2-(3-methylindazol-6-yloxy)ethylamino)ethyl)phenyl) benzenesulfonamide] the same measures were 48%, 125 nM and 0%.
Turning to `Cc1n[nH]c2cc(OCCNC[C@H](O)c3cccc(NS(=O)(=O)c4ccccn4)c3)ccc12` [ex64, (R)-N-(3-(1-hydroxy-2-(2-(3-methylindazol-6-yloxy)ethylamino)ethyl)phenyl)pyridine-2-sulfonamide], in experiment [2], the Emax was found to be 65% and the EC50 amounted to 208 nM.
With `Cc1n[nH]c2cc(OCCNC[C@H](O)c3cccc(NS(=O)(=O)c4cccc(C(F)(F)F)c4)c3)ccc12` [ex65, (R)-N-(3-(1-hydroxy-2-(2-(3-methylindazol-6-yloxy)ethylamino)ethyl)phenyl)-3-(trifluoromethyl)-benzenesulfonamide], in experiment [2], the Emax was found to be 65% and it took 579 nM to reach a half-maximal effect (EC50).
For `Cc1n[nH]c2cc(OCCNC[C@H](O)c3cccc(NS(=O)(=O)c4cccc(OC(F)F)c4)c3)ccc12` [ex66, (R)-3-(difluoro-methoxy)-N-(3-(1-hydroxy-2-(2-(3-methylindazol-6-yloxy)ethylamino)ethyl)phenyl) benzenesulfonamide] the same measures were 88% and 291 nM.
For `Cc1n[nH]c2cc(OCCNC[C@H](O)c3cccc(NS(=O)(=O)c4c(F)cccc4F)c3)ccc12` [ex69, (R)-2,6-difluoro-N-(3-(1-hydroxy-2-(2-(3-methylindazol-6-yloxy)ethylamino)ethyl)phenyl) benzenesulfonamide] the same measures were 72% and 594 nM.
For `Cc1n[nH]c2cc(OCCNC[C@H](O)c3cccc(NS(=O)(=O)c4cc(F)c(F)c(F)c4)c3)ccc12` [ex77, (R)-3,4,5-trifluoro-N-(3-(1-hydroxy-2-(2-(3-methylindazol-6-yloxy)ethylamino)ethyl)phenyl) benzenesulfonamide], the “β3 receptor I.A.” value in experiment [2] is on record as 59%.
As for `O=S(=O)(Nc1cccc([C@@H](O)CNCCOc2ccc3c(OC(F)F)n[nH]c3c2)c1)C1CCC1` [ex115, (R)-N-(3-(2-(2-(3-(difluoromethoxy)-indazol-6-yloxy)ethylamino)-1-hydroxyethyl)phenyl)-cyclobutanesul-fonamide], in experiment [2], the Emax was 86% and the EC50 is 15 nM. Besides, in experiment [1], the Emax was 35% and the EC50 worked out at 1100 nM.
As to `O=S(=O)(Nc1cccc([C@@H](O)CNCCOc2ccc3c(OC(F)F)n[nH]c3c2)c1)c1ccccn1` [ex117, (R)-N-(3-(2-(2-(3-(difluoromethoxy)-indazol-6-yloxy)ethylamino)-1-hydroxyethyl)phenyl)pyridine-2-sulfonamide], the “β3 receptor I.A.” value in experiment [2] was found to be 54%. Moreover, in experiment [1], the “α1A receptor I.A.” value worked out at 0%.
For the compound `CCc1n[nH]c2cc(OCCNC[C@H](O)c3cccc(NS(=O)(=O)c4cccc(Cl)c4)c3)ccc12` [ex119, (R)-3-chloro-N-(3-(2-(2-(3-ethylindazol-6-yloxy)-ethylamino)-1-hydroxyethyl)-phenyl) benzenesulfonamide], in experiment [2], the Emax amounted to 47% and the concentration for a half-maximal effect (EC50) was 23 nM. For the same compound, the Emax in experiment [1] came out at 0%.
Take `CCc1n[nH]c2cc(OCCNC[C@H](O)c3cccc(NS(=O)(=O)c4cccc(OC)c4)c3)ccc12` [ex120, (R)-N-(3-(2-(2-(3-ethylindazol-6-yloxy)ethylamino)-1-hydroxyethyl)phenyl)-3-methoxybenzene-sulfonamide]: in experiment [2], the Emax was 32% and the midpoint of the response, the EC50, lay at 131 nM. Also, in experiment [1], the Emax turned out to be 0%.
The corresponding values for `CCc1n[nH]c2cc(OCCNC[C@H](O)c3cccc(NS(=O)(=O)c4cccnc4)c3)ccc12` [ex121, (R)-N-(3-(2-(2-(3-ethylindazol-6-yloxy)ethylamino)-1-hydroxyethyl)phenyl) pyridine-3-sulfonamide] are 53%, 2.8 nM and 0%.
Regarding `CCc1n[nH]c2cc(OCCNC[C@H](O)c3cccc(NS(=O)(=O)c4cccs4)c3)ccc12` [ex122, (R)-N-(3-(2-(2-(3-ethylindazol-6-yloxy)ethylamino)-1-hydroxyethyl)phenyl) thiophene-2-sulfonamide], in experiment [2], the Emax is 59% and the EC50 was determined as 0.91 nM. Besides, the Emax in experiment [1] is 0%.
`Nc1cccc(S(=O)(=O)Nc2cc([C@@H](O)CNCCOc3ccc4c(C(F)(F)F)n[nH]c4c3)ccc2Cl)c1` [ex183, (R)-3-amino-N-(2-chloro-5-(1-hydroxy-2-(2-(3-(trifluoro-methyl)-indazol-6-yloxy)ethylamino)ethyl)phenyl)ben-zenesulfonamide]: the “β3 receptor I.A.” value in experiment [2] worked out at 72%.
Take “(R)-N-(3-(1-hydroxy-2- (2-(3-methoxyindazol- 6-yloxy)-ethylamino) ethyl)phenyl)- ? benzenesulfonamide [ex40]”: the “β3 receptor I.A.” value in experiment [2] is on record as 50%.
